Source: patent US8404643B2, “Metastin derivatives and use thereof” (priority 2005, dated 2013)
Square brackets hold non-standard residues; d marks the D form. Peptide text beside a SMILES is read from it. Phe(4-Cl) = N[C@@H](Cc1ccc(Cl)cc1)C(=O)O; Phe(3-F) = N[C@@H](Cc1cccc(F)c1)C(=O)O; Phe(2-F) = N[C@@H](Cc1ccccc1F)C(=O)O; Arg(Me) = CNC(=N)NCCC[C@H](N)C(=O)O; Hyp = O=C(O)[C@@H]1C[C@@H](O)CN1; Pip(4-aza) = O=C(O)[C@@H]1CNCCN1; azaGly = NNC(=O)O

These compounds were tested against T1, hOT7T175 (Homo sapiens, UniProt Q969F8) (assay: Assay for intracellular Ca ion level-increasing activity using FLIPR). Conditions: hOT7T175/CHO cells, relative to Metastin (1-54).
T1 construct: expressed in transfected cells
Assay type: cell-based
Summary of the method: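 CHO/dhfr− cells stably transfected with hOT7T175, selected for high metastin response, loaded with Fluo3-AM for 1 h at 37 °C in HANKS/HBSS (pH 7.4) with probenecid. Peptides were diluted from 1×10^−3 M DMSO stock into HANKS/HBSS with 2.5 mM probenecid, 0.2% BSA, 0.1% CHAPS; intracellular Ca rise read by FLIPR.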

T1 sequence (Q969F8 whole entry L364H): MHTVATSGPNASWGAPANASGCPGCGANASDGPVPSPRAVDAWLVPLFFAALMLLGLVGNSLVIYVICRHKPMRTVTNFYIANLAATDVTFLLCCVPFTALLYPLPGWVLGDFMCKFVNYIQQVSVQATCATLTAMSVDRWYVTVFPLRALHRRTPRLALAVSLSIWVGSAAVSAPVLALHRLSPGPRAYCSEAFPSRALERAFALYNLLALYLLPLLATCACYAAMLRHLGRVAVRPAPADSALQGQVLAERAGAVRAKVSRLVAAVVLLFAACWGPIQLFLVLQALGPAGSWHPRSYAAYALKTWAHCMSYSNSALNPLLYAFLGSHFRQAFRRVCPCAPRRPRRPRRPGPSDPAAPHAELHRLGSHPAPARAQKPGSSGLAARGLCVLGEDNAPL

SMILES | Specific Activity: intracellular Ca ion level-increasing activity [specific activity to Metastin (1-54)]
CNC(=N)NCCC[C@H](NC(=O)[C@H](CC(C)C)NC(=O)NNC(=O)[C@H](Cc1ccccc1F)NC(=O)[C@@H](NC(=O)[C@H](CC(N)=O)NC(=O)[C@H](CCC(=O)O)NC(=O)[C@@H](Cc1ccc(O)cc1)NC(C)=O)[C@@H](C)O)C(=O)N[C@@H](Cc1c[nH]c2ccccc12)C(N)=O [Compound No. 755, Ac-D-Tyr-Glu-Asn-Thr-Phe(2F)-AzaGly-Leu-Arg(Me)-Trp-NH2] (Ac-[dY]ENT[Phe(2-F)][azaGly]L[Arg(Me)]W-NH2) | 3.5
CNC(=N)NCCC[C@H](NC(=O)[C@H](CC(C)C)NC(=O)NNC(=O)[C@H](Cc1cccc(F)c1)NC(=O)[C@@H](NC(=O)[C@H](CC(N)=O)NC(=O)[C@H](CCCCN)NC(=O)[C@@H](Cc1ccc(O)cc1)NC(C)=O)[C@@H](C)O)C(=O)N[C@@H](Cc1c[nH]c2ccccc12)C(N)=O [Compound No. 756, Ac-D-Tyr-Lys-Asn-Thr-Phe(3F)-AzaGly-Leu-Arg(Me)-Trp-NH2] (Ac-[dY]KNT[Phe(3-F)][azaGly]L[Arg(Me)]W-NH2) | 2.4
CNC(=N)NCCC[C@H](NC(=O)[C@H](CC(C)C)NC(=O)NNC(=O)[C@H](Cc1cccc(F)c1)NC(=O)[C@@H](NC(=O)[C@H](CC(N)=O)NC(=O)[C@H](CCC(=O)O)NC(=O)[C@@H](Cc1ccc(O)cc1)NC(C)=O)[C@@H](C)O)C(=O)N[C@@H](Cc1c[nH]c2ccccc12)C(N)=O [Compound No. 757, Ac-D-Tyr-Glu-Asn-Thr-Phe(3F)-AzaGly-Leu-Arg(Me)-Trp-NH2] (Ac-[dY]ENT[Phe(3-F)][azaGly]L[Arg(Me)]W-NH2) | 2.7
CNC(=N)NCCC[C@H](NC(=O)[C@H](CC(C)C)NC(=O)NNC(=O)[C@H](Cc1ccc(Cl)cc1)NC(=O)[C@@H](NC(=O)[C@H](CC(N)=O)NC(=O)[C@H](CCCCN)NC(=O)[C@@H](Cc1ccc(O)cc1)NC(C)=O)[C@@H](C)O)C(=O)N[C@@H](Cc1c[nH]c2ccccc12)C(N)=O [Compound No. 758, Ac-D-Tyr-Lys-Asn-Thr-Phe(4Cl)-AzaGly-Leu-Arg(Me)-Trp-NH2] (Ac-[dY]KNT[Phe(4-Cl)][azaGly]L[Arg(Me)]W-NH2) | 1.8
CNC(=N)NCCC[C@H](NC(=O)[C@H](CC(C)C)NC(=O)NNC(=O)[C@H](Cc1ccc(Cl)cc1)NC(=O)[C@@H](NC(=O)[C@H](CC(N)=O)NC(=O)[C@H](CCC(=O)O)NC(=O)[C@@H](Cc1ccc(O)cc1)NC(C)=O)[C@@H](C)O)C(=O)N[C@@H](Cc1c[nH]c2ccccc12)C(N)=O [Compound No. 759, Ac-D-Tyr-Glu-Asn-Thr-Phe(4Cl)-AzaGly-Leu-Arg(Me)-Trp-NH2] (Ac-[dY]ENT[Phe(4-Cl)][azaGly]L[Arg(Me)]W-NH2) | 1.9

The remaining lines, values ahead:

Specific Activity: intracellular Ca ion level-increasing activity [specific activity to Metastin (1-54)] | SMILES
1.7 | CNC(=N)NCCC[C@H](NC(=O)[C@H](CC(C)C)NC(=O)NNC(=O)[C@H](Cc1ccccc1)NC(=O)[C@@H](NC(=O)[C@H](CC(N)=O)NC(=O)[C@@H]1CNCCN1C(=O)[C@@H](Cc1ccc(O)cc1)NC(C)=O)[C@@H](C)O)C(=O)N[C@@H](Cc1c[nH]c2ccccc12)C(N)=O [Compound No. 760, Ac-D-Tyr-Pzc(2)-Asn-Thr-Phe-AzaGly-Leu-Arg(Me)-Trp-NH2] (Ac-[dY][Pip(4-aza)]NTF[azaGly]L[Arg(Me)]W-NH2)
6.4 | CNC(=N)NCCC[C@H](NC(=O)[C@H](CC(C)C)NC(=O)NNC(=O)[C@H](Cc1ccccc1F)NC(=O)[C@@H](NC(=O)[C@H](CC(N)=O)NC(=O)[C@@H]1C[C@@H](O)CN1C(=O)[C@@H](Cc1ccc(O)cc1)NC(C)=O)[C@@H](C)O)C(=O)N[C@@H](Cc1c[nH]c2ccccc12)C(N)=O [Compound No. 763, Ac-D-Tyr-Hyp-Asn-Thr-Phe(2F)-AzaGly-Leu-Arg(Me)-Trp-NH2] (Ac-[dY][Hyp]NT[Phe(2-F)][azaGly]L[Arg(Me)]W-NH2)
